{
  "source": "ChEMBL document CHEMBL4196088",
  "about": "“Induction of cell killing and autophagy by amphiphilic pyrrolidine derivatives on human pancreatic cancer cells” (Eur J Med Chem, 2018)",
  "key": {"[1]": {"tested_on": "PK9", "experiment": "Induction of apoptosis in human PK9 cells assessed as accumulation at sub-G0/G1 phase at 20 uM after 48 hrs by propidium iodide staining based flow cytometry (reference value: 3.8%)", "assay_type": "functional"}, "[2]": {"tested_on": "BXPC-3", "experiment": "Induction of apoptosis in human BxPC3 cells assessed as accumulation at sub-G0/G1 phase at 20 uM after 72 hrs by propidium iodide staining based flow cytometry (reference value: 3.4%)", "assay_type": "functional"}, "[3]": {"tested_on": "ACHN", "experiment": "Growth inhibition of human ACHN cells after 72 hrs", "assay_type": "functional, cell-based"}, "[4]": {"tested_on": "PK9", "experiment": "Induction of apoptosis in human PK9 cells assessed as accumulation at sub-G0/G1 phase at 20 uM after 72 hrs by propidium iodide staining based flow cytometry (reference value: 4%)", "assay_type": "functional"}, "[5]": {"tested_on": "BXPC-3", "experiment": "Induction of apoptosis in human BxPC3 cells assessed as increase in cleaved PARP protein expression at 20 uM after 15 to 48 hrs by Western blot analysis", "assay_type": "functional, cell-based"}, "[6]": {"tested_on": "Fibroblast", "experiment": "Induction of apoptosis in human primary fibroblasts assessed as accumulation at sub-G0/G1 phase at 10 uM after 24 hrs by propidium iodide staining based flow cytometry (reference value: 4.8%)", "assay_type": "cell-based"}, "[7]": {"experiment": "Induction of apoptosis in HPNE cells assessed as accumulation at sub-G0/G1 phase at 10 uM after 72 hrs by propidium iodide staining based flow cytometry (reference value: 6.6%)", "assay_type": "cell-based", "conditions": "human"}, "[8]": {"tested_on": "BXPC-3", "experiment": "Induction of apoptosis in human BxPC3 cells assessed as accumulation at sub-G0/G1 phase at 20 uM after 48 hrs in presence of autophagy inhibitor 3-MA by propidium iodide staining based flow cytometry", "assay_type": "functional, cell-based"}, "[9]": {"tested_on": "PK9", "experiment": "Induction of apoptosis in human PK9 cells harboring BECN1 shRNA at 20 uM after 24 hrs by Annexin V/7-AAD staining based flow cytometry", "assay_type": "functional, cell-based"}, "[10]": {"tested_on": "BXPC-3", "experiment": "Induction of apoptosis in human BxPC3 cells assessed as accumulation at sub-G0/G1 phase at 20 uM by propidium iodide staining based flow cytometry", "assay_type": "functional, cell-based", "conditions": "TDE = time-dependent effect"}, "[11]": {"tested_on": "MIA PaCa-2", "experiment": "Induction of apoptosis in human MIAPaCa2 cells assessed as late apoptotic cells at 20 uM after 24 hrs by Annexin V-FITC/propidium iodide staining based flow cytometry (reference value: 7.4%)", "assay_type": "functional"}, "[12]": {"tested_on": "PANC-1", "experiment": "Induction of apoptosis in human PANC1 cells assessed as accumulation at sub-G0/G1 phase at 20 uM after 24 hrs by propidium iodide staining based flow cytometry (reference value: 0.6 to 0.7%)", "assay_type": "functional"}, "[13]": {"tested_on": "MIA PaCa-2", "experiment": "Induction of apoptosis in human MIAPaCa2 cells assessed as increase in cleaved PARP protein expression at 20 uM after 15 to 48 hrs by Western blot analysis", "assay_type": "functional, cell-based"}, "[14]": {"tested_on": "BXPC-3", "experiment": "Induction of autophagy in human BxPC3 cells assessed as increase in LC3-2 protein expression at 20 uM after 48 hrs in presence of autophagy inhibitor bafilomycin A1 by Western blot analysis", "assay_type": "functional, cell-based"}, "[15]": {"tested_on": "MIA PaCa-2", "experiment": "Induction of autophagy in human MIAPaCa2 cells assessed as increase in LC3-2 protein expression at 20 uM after 15 to 48 hrs by Western blot analysis", "assay_type": "functional, cell-based"}, "[16]": {"tested_on": "PK9", "experiment": "Induction of apoptosis in human PK9 cells assessed as accumulation at sub-G0/G1 phase at 10 uM after 72 hrs by propidium iodide staining based flow cytometry (reference value: 4%)", "assay_type": "functional"}, "[17]": {"tested_on": "BXPC-3", "experiment": "Induction of autophagy in human BxPC3 cells assessed as increase in LC3-2 protein expression at 20 uM after 48 hrs in presence of autophagy inhibitor 3-MA by Western blot analysis", "assay_type": "functional, cell-based"}, "[18]": {"tested_on": "MIA PaCa-2", "experiment": "Induction of apoptosis in human MIAPaCa2 cells assessed as live cells at 20 uM after 48 hrs by Annexin V-FITC/propidium iodide staining based flow cytometry (reference value: 86.79%)", "assay_type": "functional"}, "[19]": {"tested_on": "PANC-1", "experiment": "Induction of apoptosis in human PANC1 cells assessed as accumulation at sub-G0/G1 phase at 20 uM by propidium iodide staining based flow cytometry", "assay_type": "functional, cell-based", "conditions": "TDE = time-dependent effect"}, "[20]": {"tested_on": "SK-BR-3", "experiment": "Growth inhibition of human SKBR3 cells after 72 hrs", "assay_type": "functional, cell-based", "conditions": "SK-BR-3, 72 h"}, "[21]": {"tested_on": "Jurkat", "experiment": "Growth inhibition of human Jurkat cells after 72 hrs", "assay_type": "functional, cell-based"}, "[22]": {"experiment": "Induction of apoptosis in HPNE cells assessed as accumulation at sub-G0/G1 phase at 20 uM after 24 hrs by propidium iodide staining based flow cytometry (reference value: 0.6%)", "assay_type": "cell-based", "conditions": "human"}, "[23]": {"tested_on": "BXPC-3", "experiment": "Induction of apoptosis in human BxPC3 cells harboring pSFFV-Bcl-XL assessed as accumulation at sub-G0/G1 phase at 20 uM by propidium iodide staining based flow cytometry", "assay_type": "functional, cell-based", "conditions": "TDE = time-dependent effect"}, "[24]": {"tested_on": "BXPC-3", "experiment": "Induction of apoptosis in human BxPC3 cells assessed as accumulation at sub-G0/G1 phase at 10 uM after 72 hrs by propidium iodide staining based flow cytometry (reference value: 3.4%)", "assay_type": "functional"}, "[25]": {"tested_on": "HeLa", "experiment": "Growth inhibition of human HeLa cells after 72 hrs", "assay_type": "functional, cell-based"}, "[26]": {"tested_on": "NCI-H460", "experiment": "Growth inhibition of human NCI-H460 cells after 72 hrs", "assay_type": "functional, cell-based", "conditions": "NCI-H460, 72 h"}, "[27]": {"tested_on": "BXPC-3", "experiment": "Induction of apoptosis in human BxPC3 cells assessed as accumulation at sub-G0/G1 phase harboring pSFFV-Bcl-XL at 20 uM after 72 hrs by propidium iodide staining based flow cytometry (reference value: 1.3%)", "assay_type": "functional"}, "[28]": {"tested_on": "PANC-1", "experiment": "Induction of apoptosis in human PANC1 cells assessed as accumulation at sub-G0/G1 phase at 10 uM after 24 hrs by propidium iodide staining based flow cytometry (reference value: 0.6 to 0.7%)", "assay_type": "functional"}, "[29]": {"experiment": "Induction of apoptosis in HPNE cells assessed as accumulation at sub-G0/G1 phase at 20 uM after 48 hrs by propidium iodide staining based flow cytometry (reference value: 0.7%)", "assay_type": "cell-based", "conditions": "human"}, "[30]": {"tested_on": "PK9", "experiment": "Induction of apoptosis in human PK9 cells assessed as accumulation at sub-G0/G1 phase at 10 uM after 24 hrs by propidium iodide staining based flow cytometry (reference value: 2.2%)", "assay_type": "functional"}, "[31]": {"tested_on": "PK9", "experiment": "Induction of apoptosis in human PK9 cells harboring ATG7 shRNA at 20 uM after 24 hrs by Annexin V/7-AAD staining based flow cytometry", "assay_type": "functional, cell-based"}, "[32]": {"tested_on": "BXPC-3", "experiment": "Growth inhibition of human BxPC3 cells after 72 hrs by XTT assay", "assay_type": "functional, cell-based", "conditions": "BXPC-3, 72 h"}, "[33]": {"tested_on": "PANC-1", "experiment": "Growth inhibition of human PANC1 cells after 72 hrs by XTT assay", "assay_type": "functional, cell-based", "conditions": "PANC-1, 72 h"}},
  "note": "Calls of active or inactive are those of the source. The rule behind the calls is not given here.",
  "data": [
    {"molecule": "CCCCCC/C=C\\CCCCCCCCOC[C@H]1NC[C@H](O)[C@@H]1O", "values": [
      {"measurement": "Activity", "setting": "[1]", "value": 20, "unit": "%"},
      {"measurement": "Activity", "setting": "[2]", "value": 46.8, "unit": "%"},
      {"measurement": "IC50", "setting": "[3]", "value": 3, "unit": "µM"},
      {"measurement": "Activity", "setting": "[4]", "value": 28.6, "unit": "%"},
      {"measurement": "Activity", "setting": "[5]", "value": "Active"},
      {"measurement": "Activity", "setting": "[6]", "value": 7.9, "unit": "%"},
      {"measurement": "Activity", "setting": "[7]", "value": 42.1, "unit": "%"},
      {"measurement": "Activity", "setting": "[8]", "value": "Active"},
      {"measurement": "Activity", "setting": "[9]", "value": "Active"},
      {"measurement": "Activity", "setting": "[10]", "value": "Tde"},
      {"measurement": "Activity", "setting": "[11]", "value": 10.68, "unit": "%"},
      {"measurement": "Activity", "setting": "[12]", "value": 5.3, "unit": "%"},
      {"measurement": "Activity", "setting": "[13]", "value": "Active"},
      {"measurement": "Activity", "setting": "[14]", "value": "Active"},
      {"measurement": "Activity", "setting": "[15]", "value": "Active"},
      {"measurement": "Activity", "setting": "[16]", "value": 6.5, "unit": "%"},
      {"measurement": "Activity", "setting": "[17]", "value": "inactive"},
      {"measurement": "Activity", "setting": "[18]", "value": 4.4, "unit": "%"},
      {"measurement": "Activity", "setting": "[19]", "value": "Tde"},
      {"measurement": "IC50", "setting": "[20]", "value": 6, "unit": "µM"},
      {"measurement": "IC50", "setting": "[21]", "value": 1, "unit": "µM"},
      {"measurement": "Activity", "setting": "[22]", "value": 70.6, "unit": "%"},
      {"measurement": "Activity", "setting": "[23]", "value": "Tde"},
      {"measurement": "Activity", "setting": "[24]", "value": 20.8, "unit": "%"},
      {"measurement": "IC50", "setting": "[25]", "value": 2, "unit": "µM"},
      {"measurement": "IC50", "setting": "[26]", "value": 9, "unit": "µM"},
      {"measurement": "Activity", "setting": "[27]", "value": 8.6, "unit": "%"},
      {"measurement": "Activity", "setting": "[28]", "value": 6.7, "unit": "%"},
      {"measurement": "Activity", "setting": "[29]", "value": 75.7, "unit": "%"},
      {"measurement": "Activity", "setting": "[30]", "value": 3.8, "unit": "%"},
      {"measurement": "Activity", "setting": "[31]", "value": "Active"}
    ]},
    {"molecule": "CCCCCCCCCCCCCCCCCCOCC(COP(=O)([O-])OCC[N+](C)(C)C)OC", "note": "(configuration not stated) [EDELFOSINE]", "values": [
      {"measurement": "Activity", "setting": "[1]", "value": 11.2, "unit": "%"},
      {"measurement": "Activity", "setting": "[2]", "value": 39.2, "unit": "%"},
      {"measurement": "Activity", "setting": "[4]", "value": 15.6, "unit": "%"},
      {"measurement": "Activity", "setting": "[5]", "value": "Active"},
      {"measurement": "Activity", "setting": "[6]", "value": 5.2, "unit": "%"},
      {"measurement": "IC50", "setting": "[32]", "value": 18.8, "unit": "µM"},
      {"measurement": "Activity", "setting": "[7]", "value": 4.8, "unit": "%"},
      {"measurement": "Activity", "setting": "[8]", "value": "Active"},
      {"measurement": "Activity", "setting": "[11]", "value": 52.52, "unit": "%"},
      {"measurement": "Activity", "setting": "[12]", "value": 8.46, "unit": "%"},
      {"measurement": "Activity", "setting": "[13]", "value": "Active"},
      {"measurement": "Activity", "setting": "[15]", "value": "Active"},
      {"measurement": "Activity", "setting": "[16]", "value": 10.3, "unit": "%"},
      {"measurement": "Activity", "setting": "[18]", "value": 2.49, "unit": "%"},
      {"measurement": "Activity", "setting": "[22]", "value": 2.8, "unit": "%"},
      {"measurement": "Activity", "setting": "[24]", "value": 24.3, "unit": "%"},
      {"measurement": "Activity", "setting": "[27]", "value": 2.8, "unit": "%"},
      {"measurement": "IC50", "setting": "[33]", "value": 25.7, "unit": "µM"},
      {"measurement": "Activity", "setting": "[28]", "value": 3.2, "unit": "%"},
      {"measurement": "Activity", "setting": "[29]", "value": 7.3, "unit": "%"},
      {"measurement": "Activity", "setting": "[30]", "value": 3.8, "unit": "%"}
    ]}
  ]
}
